The target in experiment [1] is T1, Cathepsin S (Homo sapiens, UniProt P25774). Kind of experiment: Inhibition of recombinant human liver CatS using Z-FR-AMC as substrate by fluorescence assay.
Target sequence in this assay (P25774 whole entry): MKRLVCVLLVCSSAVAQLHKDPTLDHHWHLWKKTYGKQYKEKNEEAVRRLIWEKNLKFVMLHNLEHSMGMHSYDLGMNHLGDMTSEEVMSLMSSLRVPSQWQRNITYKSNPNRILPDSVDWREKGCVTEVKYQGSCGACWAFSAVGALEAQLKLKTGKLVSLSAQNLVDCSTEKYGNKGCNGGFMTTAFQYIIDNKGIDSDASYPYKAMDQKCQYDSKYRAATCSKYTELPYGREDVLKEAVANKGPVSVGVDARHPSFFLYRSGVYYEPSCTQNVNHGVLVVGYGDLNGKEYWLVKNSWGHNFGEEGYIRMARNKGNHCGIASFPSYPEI
A further experiment deals with T2, Cathepsin K (Homo sapiens, UniProt P43235).
T2 sequence (P43235 whole entry): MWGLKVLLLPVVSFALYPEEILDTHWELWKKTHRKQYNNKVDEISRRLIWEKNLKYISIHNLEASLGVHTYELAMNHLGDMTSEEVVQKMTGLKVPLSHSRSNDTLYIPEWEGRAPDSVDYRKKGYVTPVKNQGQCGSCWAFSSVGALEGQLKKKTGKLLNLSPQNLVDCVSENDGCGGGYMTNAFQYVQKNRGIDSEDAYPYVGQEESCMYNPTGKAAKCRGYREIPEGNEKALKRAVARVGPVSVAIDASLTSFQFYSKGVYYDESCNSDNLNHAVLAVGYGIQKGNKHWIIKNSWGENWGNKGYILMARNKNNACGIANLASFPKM
Kind of experiment: Inhibition of recombinant human liver CatK using Z-FR-AMC as substrate by fluorescence assay.

For experiment [2], the target named is T3, Cathepsin B (Homo sapiens, UniProt P07858). Description: Inhibition of recombinant human liver CatB at 10 uM using Z-FR-AMC as substrate by fluorescence assay relative to control.
Experiment [3] addresses T4, Procathepsin L (Homo sapiens, UniProt P07711). Description: Inhibition of recombinant human liver CatL at 10 uM using Z-FR-AMC as substrate by fluorescence assay relative to control.
Target sequence in this assay (P07711 114-333 limits assumed): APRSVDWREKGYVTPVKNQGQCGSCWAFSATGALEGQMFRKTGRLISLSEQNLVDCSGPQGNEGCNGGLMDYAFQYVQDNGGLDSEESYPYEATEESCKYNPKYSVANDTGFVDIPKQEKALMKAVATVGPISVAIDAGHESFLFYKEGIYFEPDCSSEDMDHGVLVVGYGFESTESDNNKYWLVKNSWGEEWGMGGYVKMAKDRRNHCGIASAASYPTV
A further experiment concerns the target Cruzipain (Trypanosoma cruzi, UniProt P25779). Kind of experiment: Inhibition of Trypanosoma cruzi cruzain using Z-FR-AMC as substrate by fluorescence assay.
The target of experiment [4] is T3, Cathepsin B. Description: Inhibition of recombinant human liver CatB using Z-FR-AMC as substrate by fluorescence assay.
The target of experiment [5] is T5, Cathepsin K (Homo sapiens) (UniProt P43235).
T5 sequence (whole entry): T2 sequence (P43235 whole entry)
Description: Inhibition of recombinant human liver CatK at 10 uM using Z-FR-AMC as substrate by fluorescence assay relative to control.

Experiment [6] addresses T4, Procathepsin L. Kind of experiment: Inhibition of recombinant human liver CatL using Z-FR-AMC as substrate by fluorescence assay.
Target sequence in this assay (P07711 whole entry): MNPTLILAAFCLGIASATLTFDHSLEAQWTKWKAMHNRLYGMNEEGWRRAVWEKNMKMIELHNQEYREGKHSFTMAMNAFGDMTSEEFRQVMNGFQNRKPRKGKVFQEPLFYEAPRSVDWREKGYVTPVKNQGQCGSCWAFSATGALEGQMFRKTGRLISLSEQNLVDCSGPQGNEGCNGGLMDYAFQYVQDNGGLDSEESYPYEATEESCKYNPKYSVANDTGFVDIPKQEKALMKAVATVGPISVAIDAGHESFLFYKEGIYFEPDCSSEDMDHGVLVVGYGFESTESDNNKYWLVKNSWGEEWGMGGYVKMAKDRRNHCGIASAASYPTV
Experiment [7] has as its target Cruzipain (Trypanosoma cruzi) (UniProt P25779). Kind of experiment: Inhibition of Trypanosoma cruzi cruzain at 10 uM using Z-FR-AMC as substrate by fluorescence assay relative to control.
Experiment [8] deals with T1, Cathepsin S. Description: Inhibition of recombinant human liver CatS at 10 uM using Z-FR-AMC as substrate by fluorescence assay relative to control.
Target sequence in this assay (P25774 115-331 limits assumed): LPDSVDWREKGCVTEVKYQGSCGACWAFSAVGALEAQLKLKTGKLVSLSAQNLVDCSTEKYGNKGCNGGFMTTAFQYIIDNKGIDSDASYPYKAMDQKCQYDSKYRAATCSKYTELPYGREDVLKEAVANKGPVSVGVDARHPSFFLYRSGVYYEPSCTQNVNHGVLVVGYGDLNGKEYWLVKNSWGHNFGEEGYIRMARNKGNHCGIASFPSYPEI

A value given as a limit tells only on which side of the number the result lay.

What is called Ki is a dissociation constant, usually derived from enzyme kinetics or from competition with a known ligand. What is called inhibition is the percentage by which the read-out fell short of the control.

Cruzipain, sequence (P25779 whole entry): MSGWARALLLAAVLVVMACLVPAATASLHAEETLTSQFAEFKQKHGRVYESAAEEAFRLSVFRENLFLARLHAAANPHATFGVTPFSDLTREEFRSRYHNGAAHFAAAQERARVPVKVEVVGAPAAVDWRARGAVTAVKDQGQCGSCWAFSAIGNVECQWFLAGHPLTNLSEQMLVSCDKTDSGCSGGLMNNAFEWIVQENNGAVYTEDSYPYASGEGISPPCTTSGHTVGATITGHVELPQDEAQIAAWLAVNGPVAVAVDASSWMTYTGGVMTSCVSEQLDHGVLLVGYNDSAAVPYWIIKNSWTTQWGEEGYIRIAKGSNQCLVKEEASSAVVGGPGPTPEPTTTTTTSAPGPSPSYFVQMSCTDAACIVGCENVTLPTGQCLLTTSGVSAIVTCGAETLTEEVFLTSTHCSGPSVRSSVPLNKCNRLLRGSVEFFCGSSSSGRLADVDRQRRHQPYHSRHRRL
Cruzipain (Trypanosoma cruzi), sequence (P25779 123-467 limits assumed): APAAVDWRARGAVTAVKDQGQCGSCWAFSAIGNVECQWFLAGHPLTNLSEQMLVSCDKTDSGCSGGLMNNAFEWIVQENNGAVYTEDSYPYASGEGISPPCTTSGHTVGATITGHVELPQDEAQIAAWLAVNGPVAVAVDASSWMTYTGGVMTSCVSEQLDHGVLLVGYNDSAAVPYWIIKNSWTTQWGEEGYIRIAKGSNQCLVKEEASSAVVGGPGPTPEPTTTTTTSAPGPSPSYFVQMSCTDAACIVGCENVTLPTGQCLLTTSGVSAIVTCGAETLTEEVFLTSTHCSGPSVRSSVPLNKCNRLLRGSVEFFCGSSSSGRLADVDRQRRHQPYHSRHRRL

Consider `N#CC1(NC(=O)CN(Cc2ccccc2)C(=O)c2ccccc2)CC1`, for which the inhibitory constant (Ki) is 5.01 µM at Cathepsin S [1], 398 nM at Cathepsin K and 7.94 µM on Cruzipain. The figures for the inhibition at Cathepsin B [2] and on Procathepsin L [3] were 91% and 82%, respectively.

For `N#CC1(NC(=O)[C@H](Cc2ccccc2)NC(=O)c2ccccc2)CC1`, the Ki is 7.94 µM at Cathepsin B [4] and 0.2 µM at Cruzipain.

`N#CCNC(=O)CN(Cc1ccccc1)C(=O)c1cccc(I)c1`: the Ki on Cathepsin S [1] is 10 µM; at Procathepsin L [6], 6.31 µM. In addition, the inhibition at Cathepsin B [2] is 87%; in experiment [5], greater than 95%; in experiment [7] it was 34%.

Regarding `Cn1nc(C(C)(C)C)cc1C(=O)N(CC(=O)NCC#N)Cc1cccc(Cl)c1`, the inhibition (on Cathepsin S [8]; on Procathepsin L [3]; in experiment [5]) was greater than 95% each time. Also, the Ki is 7.94 µM at Cathepsin B [4] and 0.158 µM on Cruzipain.

For the molecule `COc1ccc(-c2ccc(C(=O)N(CC(=O)NC3(C#N)CC3)Cc3ccccc3)cc2)cc1`, the inhibition constant Ki is 3.98 µM on Cathepsin S [1], 10000 nM at Cathepsin K and 10 µM at Cruzipain. In addition, the inhibition worked out at 78% at Cathepsin B [2] and 68% at Procathepsin L [3].

Take `COc1ccc(-c2ccc(C(=O)N(CC(=O)NCC#N)Cc3ccccc3)cc2)cc1`: the Ki on Cathepsin S [1] is 0.794 µM; at Cathepsin K, 2510 nM; at Cruzipain it was 5.01 µM. Also, the results for the inhibition at Cathepsin B [2] and on Procathepsin L [3] were 83% and greater than 95%, respectively.

As to `Cn1nc(C(C)(C)C)cc1C(=O)N(CC(=O)NCC#N)Cc1ccccc1`, the inhibition on Cathepsin S [8] is 84%; at Cathepsin B [2] it was 93%; at Procathepsin L [3], 88%; in experiment [5] it was 58%; in experiment [7] it was greater than 95%.

`N#CC1(NC(=O)CN(Cc2ccccc2)C(=O)Cc2ccccc2)CC1`: the inhibition on Cathepsin S [8] is greater than 95%; at Cathepsin B [2], greater than 95%; on Procathepsin L [3], 87%; in experiment [5], 58%. Besides, the affinity at Cruzipain corresponds to a Ki of 2.51 µM.

`CC(C)(C#N)NC(=O)CN(Cc1ccccc1)C(=O)c1ccccc1`: the Ki was 7.94 µM at Cathepsin S [1], 251 nM at Cathepsin K and 6.31 µM on Cruzipain. In addition, the inhibition is 90% on Cathepsin B [2] and greater than 95% on Procathepsin L [3].

On to `N#CCNC(=O)CN(Cc1ccccc1)C(=O)c1ccc(-c2ccccc2)cc1`, for which the values for the Ki on Cathepsin S [1], on Procathepsin L [6] and on Cruzipain were 6.31 µM, 10 µM and 3.16 µM, respectively. Also, the inhibition was found to be 66% on Cathepsin B [2] and 86% in experiment [5].

In the case of `N#CCNC(=O)CN(Cc1ccccc1)S(=O)(=O)c1cccc(Cl)c1`, the inhibition constant (Ki) on Cathepsin S [1] is 2 µM; at Procathepsin L [6] it was 2.51 µM. The inhibition at Cathepsin B [2] is greater than 95%; in experiment [5] it was 68%; in experiment [7] it was 87%.

Regarding `N#CCNC(=O)CN(Cc1ccccc1)C(=O)c1ccccc1`, the Ki was 5.01 µM at Cathepsin S [1], 0.631 µM on Procathepsin L [6] and 6.31 µM at Cruzipain. For the same molecule, the inhibition at Cathepsin B [2] is 85%; in [5] it was greater than 95%.

With `N#CC1(NC(=O)CN(Cc2ccccc2)C(=O)c2ccc(-c3ccccc3)cc2)CC1`, the inhibition at Cathepsin S [8] was 89%; on Procathepsin L [3], greater than 95%; in experiment [5], greater than 95%. Further, the Ki is 3.16 µM at Cathepsin B [4] and 0.251 µM at Cruzipain.

As to `Cn1nc(C(C)(C)C)cc1C(=O)N(CC(=O)N[C@H](C#N)Cc1ccccc1)Cc1ccccc1`, the inhibition came out at 84% on Cathepsin S [8], 80% at Cathepsin B [2] and 87% in experiment [7]. The inhibition constant Ki on Cathepsin K is 316 nM; at Procathepsin L [6], 3.16 µM.

As to `Cn1nc(C(C)(C)C)cc1C(=O)N(CC(=O)NC1(C#N)CC1)Cc1ccccc1`, the inhibition on Cathepsin S [8] is greater than 95%; at Procathepsin L [3], 85%; in experiment [5] it was 54%. Moreover, the values for the Ki on Cathepsin B [4] and on Cruzipain were 3.98 µM and 6.31 µM, respectively.

These data come from ChEMBL document CHEMBL4811270, “Nitrile-based peptoids as cysteine protease inhibitors” (Bioorg Med Chem, 2021).
